{
  "source": "patent US11591342B2",
  "about": "“Heterocyclic compound, application thereof and pharmaceutical composition comprising same” (SUZHOU SINOVENT PHARMACEUTICALS CO., LTD., priority 2018, dated 2023)",
  "data": [
    {"target": "Autotaxin (ATX) (Homo sapiens (Human), UniProt Q13822)", "test": "ATX bioactivity assay (Amplex Red / choline oxidase / HRP fluorescence, LPC 16:0 substrate)", "type": "biochemical", "conditions": "30 min room temperature", "method": "Effect Example 1 Bioactivity Assay\nPreparation and Treatment\nStock Solution Preparation\nA 10 mM DMSO stock solution was formulated for each compound. A 30 mM DMSO stock solution was formulated for positive control HA130.\nThe DMSO stock solutions were stored at room temperature in a desiccator for a short period of time or at −20° C. for a long period of time.\nAll compounds were serially 3-fold diluted in DMSO from 10 μM to the 10th concentration.\nA 1000× positive control (10 mM, HA130) and a 1000× negative control (100% DMSO) were prepared.\nThe plates were shaken for 5 min.\nPreparation of 1× Reaction Buffer:\n5× reaction buffer and cold water were mixed well in a volume ratio of 1:4.\nPreparation of 20 U/mL Choline Oxidase Stock Solution:\n1 tube of choline oxide in a kit was dissolved in 1× reaction buffer. The aliquots were frozen at −20° C.\nPreparation of 200 U/mL Horseradish Peroxidase (HRP) Stock Solution:\n1 tube of HRP in a kit was dissolved in 1 mL of 1× reaction buffer. The aliquots were frozen at −20° C.\nPreparation of 20 mM Amplex® Red Reagent (for Detection) Stock Solution\nAmplex Red reagent and DMSO were equilibrated at room temperature. 1 tube of Amplex Red reagent in a kit was dissolved in 200 μL of DMSO.\na) 2×ATX ([…]), 2×HRP ([…]), 2× choline oxidase (0.2 U/mL) were added to 1× reaction buffer.\nb) 20 μL of the reaction mixture was added to the plate (PE, 6007270) (refer to step a).\nc) 40 nL of diluent was added to the plate using Echo (refer to “Preparation”).\nd) 2×LPC (16:0) (60 mM) and 2× Amplex® Red ([…]) were prepared using 1× reaction buffer.\ne) 20 μL of the mixture was added to the plate (refer to step d).\nf) The plate was shaken for 30 s and allowed to stand at room temperature for 30 min.\ng) The plate was examined using Envision, and the procedure was as follows: Excitation at 530 nm; and Emission at 590 nm.\nFormula for Calculating % Inhibition (Percent Inhibition Rate) as Follows:\nFLU: Fluorescence (fluorescence reading)\nFLUpositive: Average fluorescence value in positive control wells (10 μM HA130) in the plate.\nFLUvehicle: Average fluorescence value in negative control wells (0.1% DMSO) in the plate.\nCalculation of IC50 and Dose-Response Curve:\nIC50 of the compounds was calculated via a non-linear regression line (dose-variable slope) fitted using % inhibition and log of compound concentration. The software used was Graphpad 5.0. Y=Bottom+(Top−Bottom)/(1+10^((Log IC50−X)×Hill Slope))\nX: log of inhibitor concentration", "units": {"IC50": "nM"}, "values": [
      {"smiles": "CCc1nn2ccc(N3CCN(CC(=O)N4CC(O)C4)CC3)nc2c1N(C)c1nc(-c2ccc(F)c(F)c2)c(C#N)s1", "note": "[Compound S-0121, 4-(3,4-difluorophenyl)-2-((2-ethyl-5-(4-(2-(3-hydroxyazetidin-1-yl)-2-oxoethyl)piperazin-1-yl)pyrazolo[1,5-a]pyrimidin-3-yl)(methyl)amino)thiazole-5-carbonitrile]", "IC50": 61},
      {"smiles": "CCN(c1nc(-c2ccc(F)c(F)c2)c(C#N)s1)c1c2cc(N3CCN(CC(=O)N4CC(O)C4)CC3)cc(F)c2nn1CC", "note": "[Compound S-0123, 4-(3,4-difluorophenyl)-2-(ethyl(2-ethyl-7-fluoro-5-(4-(2-(3-hydroxyazetidin-1-yl)-2-oxoethyl)piperazin-1-yl)-2H-indazol-3-yl)amino)thiazole-5-carbonitrile]", "IC50": 32},
      {"smiles": "CC(C)n1nc2c(F)cc(N3CCN(CC(=O)N4CC(O)C4)CC3)cc2c1N(C)c1nc(-c2ccc(F)cc2)c(C#N)s1", "note": "[Compound S-0125, 2-((7-fluoro-5-(4-(2-(3-hydroxyazetidin-1-yl)-2-oxoethyl)piperazin-1-yl)-2-isopropyl-2H-indazol-3-yl)(methyl)amino)-4-(4-fluorophenyl)thiazole-5-carbonitrile]", "IC50": 178},
      {"smiles": "CN(c1nc(-c2ccc(F)cc2)c(C#N)s1)c1c2cc(N3CCN(CC(=O)N4CC(O)C4)CC3)cc(F)c2nn1C1CC1", "note": "[Compound S-0126, 2-((2-cyclopropyl-7-fluoro-5-(4-(2-(3-hydroxyazetidin-1-yl)-2-oxoethyl)piperazin-1-yl)-2H-indazol-3-yl)(methyl)amino)-4-(4-fluorophenyl)thiazole-5-carbonitrile]", "IC50": 100},
      {"smiles": "CCn1nc2c(C)cc(N3CCN(CC(=O)N4CC(O)C4)CC3)nc2c1N(CC(F)(F)F)c1nc(-c2ccc(F)cc2)c(C#N)s1", "note": "[Compound S-0140, 2-((2-ethyl-5-(4-(2-(3-hydroxyazetidin-1-yl)-2-oxoethyl)piperazin-1-yl)-7-methyl-2H-pyrazolo[4,3-b]pyridin-3-yl)(2,2,2-trifluoroethyl)amino)-4-(4-fluorophenyl)thiazole-5-carbonitrile]", "IC50": 325},
      {"smiles": "O=C1S/C(=C\\c2ccc(OCc3cccc(B(O)O)c3)cc2)C(=O)N1Cc1ccc(F)cc1", "note": "[HA130, reference compound]", "IC50": 24}
    ]}
  ]
}
